The text below walks through data of article PMC4309848, “The role of the catecholic and the electrophilic moieties of caffeic acid in Nrf2/Keap1 pathway activation in ovarian carcinoma cell lines” (Redox Biology, 2014).

For assay [1], the target named is glutathione reductase-1 (GSR, GSR1). Nature of the assay: in vitro enzyme activity assay (GSSG/NADPH, absorbance at […] nm). It is filed as biochemical.
Assay [2] concerns the target glutathione-S-transferase (GST, GSTP1). As to the kind of experiment: in vitro enzyme activity assay (GSH/CDNB conjugation, absorbance at […] nm). The format is biochemical.

Broadly, the IC50 is the concentration needed to halve the response being measured. A high value points to lower potency. In the case of `O=C(O)/C=C/c1ccc(O)c(O)c1` [CA, caffeic acid], the IC50 came out at 70 µM in assay [1] and 95 µM in assay [2].
